The test system of data set [1] is HeLa cells. Put plainly: Internalization of Dox in HeLa cells by confocal laser scanning microscopy. The settings on record: Dox ca. 10 μg/mL, one hour of incubation. The class given is cell-based, human. As to the method:
Dox accumulated in HeLa cells was localized using a Carl Zeiss LSM5 PASCAL confocal laser scanning microscopy (CLSM). The HeLa cells were seeded 1×10^5 per well on cover-slides for 24 h and were then treated with free Dox or Dox-mixed micelles. The concentration of Dox was ca. 10 μg/mL. Dox-mixed micelles were washed with PBS to remove untrapped Dox twice before use. After some time, the cells were washed twice with PBS, and then mounted on a slide with 4 wt % paraformaldehyde for CLSM observation. Fluorescence was observed by confocal microscope at 488 nm for excitation and an LP filter of 590 nm for Dox detection.
The time-dependent fluorescence intensity of Dox after Dox-mixed micelles incubated with human cervical epithelioid carcinoma (HeLa) cells was measured with free Dox (Dox-HCl) being used for comparison. […] Subsequently, the acidic endosomal compartment (ca. pH 5.5-5.0) induced Dox release due to mixed micelle dissociation by VIm protonation.

For data set [2] the following is noted: literature value; cited from earlier work.
The subject of data set [3] is HeLa cells. Description: MTT cytotoxicity test using HeLa cells. The class given is cell-based, human. As to the method: The Dox activities of free Dox and Dox-mixed micelles were determined by performing cytotoxicity tests using HeLa cells (5×10^3 cell/mL). Cells that survived after incubation were estimated by a tetrazolium dye (MTT) assay. Dox-mPEG-b-P(NnPAAm-co-VIm) micelle was used for comparison. […] The IC50 of free Dox and Dox-loaded micelles are summary in Table 3.
Introducing mPEG-b-PLA into the micelle structure not only decreases mPEG-b-P(NIPAAm-co-VIm) quantity, decreases material cytotoxicity with a positive charge (i.e. VIm), but also stabilizes the micellar structure for biomedical use.
A general note: Formazan colour is commonly taken as a measure of viable cells.

Molecules are shown by their SMILES.

As for `COc1cccc2c1C(=O)c1c(O)c3c(c(O)c1C2=O)C[C@@](O)(C(=O)CO)C[C@@H]3O[C@H]1C[C@H](N)[C@H](O)[C@H](C)O1` [Free Dox, doxorubicin], the “localization of Dox in cells” value in the data set on HeLa cells [1] is “accumulated in both the nucleus and the cytoplasm”. For the same compound, in data set [2], the pKa is listed as about 7. The “Dox activity compared with the Dox-loaded micelles” value with HeLa cells [3] is “more potent activity”.

In general, pKa refers to the negative logarithm of the acid dissociation constant.

The record behind these values is patent US8299178B2, “Stable micelles formed with diblock copolymers of critical micelle concentration copolymer and temperature-sensitive copolymer” (National Tsing Hua University, priority 2009, dated 2012).
